Measurements: ChEMBL document CHEMBL1201862, “PubChem BioAssay data set” (2004)
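Growth conditions: 96-well plates. Treatment: test compound, 48 hours, 5 concentrations. Analysis: linear interpolation between bracketing concentrations; unreached endpoints set to highest concentration. At the GI50, growth is halved.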 Active and inactive are the calls of the source. No stated cut-off is given here; in the data, active = GI50 up to about 1.1 µM and inactive = higher.

What was measured:
Assay in all cases: inhibition of tumour cell growth, NCI panel, 48 h
[1] = test system: OVCAR-5
[2] = test system: MDA-N
[3] = test system: EKVX
[4] = test system: Malme-3M
[5] = test system: DU-145
[6] = test system: NCI-H460
[7] = test system: TK-10
[8] = test system: SNB-75
[9] = test system: SF-295
[10] = test system: SN12C
[11] = test system: HCT-116
[12] = test system: NCI-H522
[13] = test system: BT-549
[14] = test system: HOP-92
[15] = test system: SR
[16] = test system: M14
[17] = test system: SK-MEL-5
[18] = test system: MDA-MB-231
[19] = test system: SK-OV-3
[20] = test system: HL-60
[21] = test system: CCRF-CEM
[22] = test system: MOLT-4
[23] = test system: RPMI-8226
[24] = test system: CAKI-1
[25] = test system: K562
[26] = test system: LOX IMVI
[27] = test system: A549
[28] = test system: MDA-MB-435
[29] = test system: SNB-19
[30] = test system: RXF 393
[31] = test system: U-251
[32] = test system: NCI-H226
[33] = test system: MCF7
[34] = test system: COLO 205
[35] = test system: SK-MEL-28
[36] = test system: UACC-257
[37] = test system: NCI-H23
[38] = test system: HCC 2998
[39] = test system: OVCAR-8
[40] = test system: KM12
[41] = test system: UACC-62
[42] = test system: SW-620
[43] = test system: 786-0
[44] = test system: ACHN
[45] = test system: SF-539
[46] = test system: HCT-15
[47] = test system: OVCAR-4
[48] = test system: A498
[49] = test system: NCI/ADR-RES
[50] = test system: UO-31
[51] = test system: IGROV-1
[52] = test system: OVCAR-3
[53] = test system: Hs-578T
[54] = test system: HT-29
[55] = test system: PC-3
[56] = test system: T47D
[57] = test system: HOP-62
[58] = test system: SF-268

## Cc1ccc(S(=O)(=O)Nn2c(S)c(C#N)c(-c3ccc(N(C)C)cc3)c(C#N)c2=O)cc1
[1]
  GI50: 35 µM (inactive)
[2]
  GI50: > 100 µM (inactive)
[3]
  GI50: 23.6 µM (inactive)
[4]
  GI50: 18.7 µM (inactive)
[5]
  GI50: 40.6 µM (inactive)
[6]
  GI50: 15.2 µM (inactive)
[7]
  GI50: 19.8 µM (inactive)
[8]
  GI50: 35.2 µM (inactive)
[9]
  GI50: 34.2 µM (inactive)
[10]
  GI50: 26.4 µM (inactive)
[11]
  GI50: 28.2 µM (inactive)
[12]
  GI50: 14.5 µM (inactive)
[13]
  GI50: 22.2 µM (inactive)
[14]
  GI50: 29.6 µM (inactive)
[15]
  GI50: 23.7 µM (inactive)
[16]
  GI50: 31.2 µM (inactive)
[17]
  GI50: 17.7 µM (inactive)
[18]
  GI50: > 100 µM (inactive)
[19]
  GI50: 48.8 µM (inactive)
[20]
  GI50: 20.7 µM (inactive)
[21]
  GI50: 5.57 µM (inactive)
[22]
  GI50: 23.4 µM (inactive)
[23]
  GI50: 15.6 µM (inactive)
[24]
  GI50: > 100 µM (inactive)
[25]
  GI50: 38.8 µM (inactive)
[26]
  GI50: 22.1 µM (inactive)
[27]
  GI50: 40.5 µM (inactive)
[28]
  GI50: 19.6 µM (inactive)
[29]
  GI50: 43 µM (inactive)
[30]
  GI50: 19.3 µM (inactive)
[31]
  GI50: 21.5 µM (inactive)
[32]
  GI50: 2.16 µM (inactive)
[33]
  GI50: 30.8 µM (inactive)
[34]
  GI50: 22 µM (inactive)
[35]
  GI50: 20.1 µM (inactive)
[36]
  GI50: 51.4 µM (inactive)
[37]
  GI50: 19.1 µM (inactive)
[38]
  GI50: 38.2 µM (inactive)
[39]
  GI50: 15.9 µM (inactive)
[40]
  GI50: 24.6 µM (inactive)
[41]
  GI50: 25.7 µM (inactive)
[42]
  GI50: 18.1 µM (inactive)
[43]
  GI50: 28.6 µM (inactive)
[44]
  GI50: 20.6 µM (inactive)
[45]
  GI50: 19 µM (inactive)
[46]
  GI50: 20.3 µM
[47]
  GI50: 17.1 µM (inactive)
[48]
  GI50: 17.3 µM (inactive)
[49]
  GI50: 32 µM (inactive)
[50]
  GI50: 16.9 µM (inactive)
[51]
  GI50: 10.8 µM (inactive)

## c1ccc([P+](Cc2ccc(C[P+](c3ccccc3)(c3ccccc3)c3ccccc3)cc2)(c2ccccc2)c2ccccc2)cc1
[1]
  GI50: 88.5 µM (inactive)
[2]
  GI50: 31 µM (inactive)
[3]
  GI50: 21.8 µM (inactive)
[4]
  GI50: 52.7 µM (inactive)
[5]
  GI50: 86.3 µM (inactive)
[52]
  GI50: 27.7 µM (inactive)
[6]
  GI50: 12.4 µM (inactive)
[7]
  GI50: 81.7 µM (inactive)
[8]
  GI50: 29.6 µM (inactive)
[9]
  GI50: 35.6 µM (inactive)
[10]
  GI50: 67.5 µM (inactive)
[11]
  GI50: 12.4 µM (inactive)
[12]
  GI50: 62.2 µM (inactive)
[53]
  GI50: 32.4 µM (inactive)
[14]
  GI50: 26.3 µM (inactive)
[15]
  GI50: > 100 µM (inactive)
[16]
  GI50: 58.2 µM (inactive)
[17]
  GI50: 27.2 µM (inactive)
[18]
  GI50: 61.8 µM (inactive)
[19]
  GI50: > 100 µM (inactive)
[54]
  GI50: 25 µM (inactive)
[20]
  GI50: 55.1 µM (inactive)
[55]
  GI50: 40.9 µM (inactive)
[56]
  GI50: > 100 µM (inactive)
[21]
  GI50: 71 µM (inactive)
[22]
  GI50: > 100 µM (inactive)
[23]
  GI50: 43 µM (inactive)
[24]
  GI50: > 100 µM (inactive)
[25]
  GI50: 9.66 µM (inactive)
[26]
  GI50: 14.6 µM (inactive)
[27]
  GI50: 45.7 µM (inactive)
[28]
  GI50: 42.7 µM (inactive)
[29]
  GI50: 26.4 µM (inactive)
[30]
  GI50: 61.4 µM (inactive)
[31]
  GI50: 21.2 µM (inactive)
[32]
  GI50: > 100 µM (inactive)
[33]
  GI50: 51.4 µM (inactive)
[34]
  GI50: 31.2 µM (inactive)
[35]
  GI50: 67.9 µM (inactive)
[36]
  GI50: 37.1 µM (inactive)
[37]
  GI50: 32.7 µM (inactive)
[38]
  GI50: 91 µM (inactive)
[57]
  GI50: 69.5 µM (inactive)
[39]
  GI50: 45.8 µM (inactive)
[40]
  GI50: 41.8 µM (inactive)
[41]
  GI50: 44.2 µM (inactive)
[42]
  GI50: 72.4 µM (inactive)
[43]
  GI50: 47.5 µM (inactive)
[44]
  GI50: > 100 µM (inactive)
[45]
  GI50: 31.2 µM (inactive)
[46]
  GI50: > 100 µM
[47]
  GI50: 48.1 µM (inactive)
[48]
  GI50: > 100 µM (inactive)
[49]
  GI50: > 100 µM (inactive)
[50]
  GI50: 18.4 µM (inactive)
[58]
  GI50: > 100 µM (inactive)
[51]
  GI50: 20.4 µM (inactive)
